{"source": "patent US7691969B2", "about": "“Isolated GRP94 ligand binding domain polypeptide and nucleic acid encoding same, crystalline form of same, and screening methods employing same” (Duke University, priority 2001, dated 2010)", "key": {"GRP94 [1]": {"biological_target": "T1, GRP94 (Sus scrofa, UniProt Q29092)", "T1 construct": "GRP94 was purified from porcine pancreas rough microsomes; from tissue; host or cells: porcine pancreas rough microsomes (lumenal contents)", "T1 sequence (Q29092 22-804)": "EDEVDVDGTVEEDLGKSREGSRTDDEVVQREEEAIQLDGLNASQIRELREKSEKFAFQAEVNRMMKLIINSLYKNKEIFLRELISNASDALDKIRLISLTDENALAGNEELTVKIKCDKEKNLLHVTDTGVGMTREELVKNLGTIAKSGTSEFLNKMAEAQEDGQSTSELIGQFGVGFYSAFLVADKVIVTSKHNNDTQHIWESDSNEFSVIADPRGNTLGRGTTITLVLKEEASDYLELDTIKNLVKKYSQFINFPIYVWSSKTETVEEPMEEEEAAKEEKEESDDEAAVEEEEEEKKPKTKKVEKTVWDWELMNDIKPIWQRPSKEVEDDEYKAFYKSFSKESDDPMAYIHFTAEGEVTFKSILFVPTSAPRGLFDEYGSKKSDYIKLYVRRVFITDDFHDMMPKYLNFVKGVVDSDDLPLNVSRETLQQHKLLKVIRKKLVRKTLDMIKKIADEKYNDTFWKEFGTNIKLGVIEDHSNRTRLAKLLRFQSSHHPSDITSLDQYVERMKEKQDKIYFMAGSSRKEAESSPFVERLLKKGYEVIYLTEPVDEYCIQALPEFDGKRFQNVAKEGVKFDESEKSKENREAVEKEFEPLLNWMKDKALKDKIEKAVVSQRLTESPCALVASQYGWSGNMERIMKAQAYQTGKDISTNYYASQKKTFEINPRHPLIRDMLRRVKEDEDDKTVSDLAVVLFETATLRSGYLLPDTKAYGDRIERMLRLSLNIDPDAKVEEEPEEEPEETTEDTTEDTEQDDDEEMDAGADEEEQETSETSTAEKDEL", "experiment": "[3H]-NECA binding assay (vacuum filtration)", "parameters": "species or system porcine", "procedure": "(§1) Where indicated, binding reactions were performed in either buffer C (10 mM Tris, pH 7.5, 50 mM KCl, 5 mM MgCl2, 2 mM DTT, 0.01% NP-40, 20 mM Na2MoO4) or 50 mM Tris, pH 7.5, 10 mM Mg(OAc)2. […] Vacuum filtration was performed with an Amersham Pharmacia Biotech (Piscataway, N.J.) vacuum filtration manifold.\nFilters were rapidly washed with 3×4 ml of ice cold 50 mM Tris, pH 7.5, placed in 5 ml of scintillation fluid (SAFETYSOLVE™, RPI of Mt. Prospect, Ill.), vortexed, and counted by liquid scintillation spectrometry. […] All binding reactions were performed in triplicate and corrected by subtraction of background values, determined in binding reactions lacking GRP94."}, "BiP": {"test_system": "BiP", "experiment": "[3H]-NECA binding assay (vacuum filtration)", "parameters": "species or system porcine", "details": "20 nM [3H]-NECA, 60 min on ice"}, "GRP94 [2]": {"biological_target": "T1, GRP94", "experiment": "Isothermal titration calorimetry", "type": "binding, porcine", "procedure": "Isothermal Titration Calorimetry. Isothermal calorimetry experiments were performed at 25° C. using a MSC calorimeter (MicroCal Inc. of Northampton, Mass.). […] The reaction chamber (1.3 mL) contained 5 μM GRP94. Necessary corrections were made by subtracting the heats of dilution resulting from buffer addition to protein solution and ligand solution into buffer."}, "GRP94 [3]": {"biological_target": "T1, GRP94", "experiment": "[3H]-NECA competitive displacement assay", "type": "binding, porcine", "details": "10 mM Mg(OAc)2 versus nominal magnesium", "procedure": "as §1\nAll binding reactions were performed in triplicate and corrected by subtraction of background values, determined in binding reactions lacking GRP94."}, "GRP94 [4]": {"biological_target": "T1, GRP94", "experiment": "GRP94 autophosphorylation assay", "type": "biochemical, porcine", "details": "180 μM NECA or radicicol in 3.6% DMSO, 5 μg/ml heparin, 5 mM GTP", "procedure": "(§2) Phosphorylation Assays. To assay for GRP94 autophosphorylation, 1 μM GRP94 was incubated with γ-[^32P]ATP (6000 cpm/pmol) (Amersham Pharmacia Biotech of Piscataway, N.J.), diluted with cold ATP to yield a final concentration of 0.15 mM ATP in a buffer containing 10 mM Mg(OAc)2 and 50 mM K-Hepes, pH 7.4. For the casein kinase assay, 1 unit of casein kinase II was incubated as described above, with the addition of 4 μM casein. […] The 25 μl reaction mixtures were incubated at 37° C. for 1 hour and quenched by addition of 10% trichloroacetic acid. Samples were analyzed by 10% SDS-PAGE gels and the phosphorylated species were quantitated using a Fuji MACBAS1000™ phosphorimaging system (Fuji Medical Systems of Stamford, Conn.)."}, "casein kinase II": {"biological_target": "casein kinase II (Homo sapiens, UniProt P68400)", "sequence (P68400 whole entry)": "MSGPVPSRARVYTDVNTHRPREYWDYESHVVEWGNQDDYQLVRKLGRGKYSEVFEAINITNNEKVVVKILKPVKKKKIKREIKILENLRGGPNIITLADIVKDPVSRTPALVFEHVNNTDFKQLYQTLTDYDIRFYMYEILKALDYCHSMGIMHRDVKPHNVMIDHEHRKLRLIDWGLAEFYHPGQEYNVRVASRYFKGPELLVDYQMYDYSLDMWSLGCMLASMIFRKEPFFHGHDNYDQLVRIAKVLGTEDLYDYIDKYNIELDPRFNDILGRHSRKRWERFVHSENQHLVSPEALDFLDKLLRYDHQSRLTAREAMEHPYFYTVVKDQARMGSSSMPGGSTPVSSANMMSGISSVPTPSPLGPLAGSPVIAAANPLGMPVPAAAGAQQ", "sequence (P67870 whole entry partner)": "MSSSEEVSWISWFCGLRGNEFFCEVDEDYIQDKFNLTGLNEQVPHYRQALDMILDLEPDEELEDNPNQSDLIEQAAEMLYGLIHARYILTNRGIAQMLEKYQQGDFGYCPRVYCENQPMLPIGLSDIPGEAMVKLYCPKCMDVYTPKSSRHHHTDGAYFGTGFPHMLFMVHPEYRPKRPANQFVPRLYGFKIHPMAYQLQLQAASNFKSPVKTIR", "experiment": "Casein kinase assay", "type": "biochemical", "details": "180 μM NECA or radicicol in 3.6% DMSO, 5 μg/ml heparin, 5 mM GTP; 4 μM casein", "procedure": "as §2"}, "GRP94 [5]": {"biological_target": "T1, GRP94", "experiment": "ATPase assay (HPLC of ATP/ADP)", "type": "biochemical, porcine", "procedure": "ATPase Assay. 100 μl reactions consisting of 1 μM GRP94 monomer, various concentrations of MgATP (pH 7.0), and 50 mM K-Hepes, pH 7.4, were incubated for two hours at 37° C. Samples were then spun through a CENTRICON®-30 (Amicon of Beverly, Mass.) at 10,000 rpm, 4° C. to separate protein from nucleotide. A final concentration of 50 mM (NH4)2HPO4, pH 7.0, and 4 μM AMP, pH 7.0, was added to dilutions of the above samples and centrifuged at 15,200 rpm for 5 minutes at 4° C. 100 μL of supernatant was then fractionated on a […]™ SAX column (Alltech of Deerfield, Ill.), using a Series 1050 Hewlett Packard HPLC system. Elution of nucleotides was performed by step gradient elution using a mobile phase of 150 mM (NH4)2HPO4, pH 5.2, at 1.2 ml/min for the first ten minutes, followed by 300 mM (NH4)2HPO4, pH 5.2, at a flow rate of 2 ml/min for the remainder of the elution. In this protocol, ADP and ATP were well resolved, with ADP eluting at 7 minutes and ATP at 12 minutes. Peak height values were used in calculations of percent hydrolysis and ADP formation. Spontaneous hydrolysis was determined for each ATP concentration in paired incubations lacking GRP94. The AMP was used as an internal reference standard to control for equivalent sample loading."}, "GRP94 [6]": {"biological_target": "T1, GRP94", "experiment": "Tryptophan fluorescence (tertiary conformational state)", "type": "biochemical, porcine", "details": "50 μM NECA, 50 μM geldanamycin, 2.5 mM ATP or 2.5 mM ADP; 1 h 37° C.", "procedure": "Tryptophan Fluorescence. Tryptophan fluorescence measurements were conducted in a FLUOROMAX™ spectrofluorometer (Spex Industries, Inc. of Edison, N.J.) with the slit widths set to 1 nm for both excitation and emission. […] All spectra were corrected by subtraction of buffer or buffer plus ligand samples. GRP94 (50 μg/ml) was incubated in buffer A supplemented with 10 mM Mg(OAc)2 and the following concentrations of ligands for 1 hour at 37° C. […] Samples were then cooled to room temperature, transferred to a quartz cuvette, and the spectra collected."}}}
{"smiles": "CCNC(=O)[C@H]1O[C@@H](n2cnc3c(N)ncnc32)[C@H](O)[C@@H]1O", "note": "[NECA, N-ethylcarboxamidoadenosine]", "values": [{"measurement": "slope of Hill plot", "setting": "GRP94 [1]", "value": 1.2}, {"measurement": "[3H]-NECA binding activity", "setting": "GRP94 [1]; 20 nM [3H]-NECA, 60 min on ice", "value": "displayed readily detectable [^3H]-NECA binding activity"}, {"measurement": "maximal binding stoichiometry (saturation curve)", "setting": "GRP94 [1]; FIG. 9B", "value": "1 molecule of NECA per molecule of GRP94 dimer"}, {"measurement": "binding stoichiometry", "setting": "GRP94 [1]; radioligand filtration", "value": "0.5 mol [^3H]-NECA/mol GRP94 monomer"}, {"measurement": "[3H]-NECA binding activity", "setting": "BiP", "value": "[^3H]-NECA binding was not observed for Hsp90 or BiP"}, {"measurement": "binding stoichiometry at saturation (summary of ligand binding studies and calorimetry)", "setting": "GRP94 [2]", "value": "1 mol NECA:mol GRP94 dimer"}, {"measurement": "binding stoichiometry by isothermal titration calorimetry", "setting": "GRP94 [2]; 5 μM GRP94, 152 μM NECA stock, 25° C.", "value": 1.1, "unit": "mol NECA/mol GRP94 dimer"}, {"measurement": "effect of excess Mg2+ on binding to GRP94", "setting": "GRP94 [3]", "value": "without effect on the binding of NECA or adenosine to GRP94"}, {"measurement": "inhibition of GRP94 autophosphorylation (GRP94-derived kinase) activity", "setting": "GRP94 [4]", "value": "neither NECA nor radicicol, both of which bind to the N-terminal nucleotide binding domain of GRP94, significantly inhibit GRP94 derived or casein kinase II activity below the solvent background"}, {"measurement": "inhibition of casein kinase II activity", "setting": "casein kinase II", "value": "neither NECA nor radicicol, both of which bind to the N-terminal nucleotide binding domain of GRP94, significantly inhibit GRP94 derived or casein kinase II activity below the solvent background"}, {"measurement": "inhibition of GRP94 ATPase activity", "setting": "GRP94 [5]", "value": "sensitive to inhibition by NECA"}, {"measurement": "change of GRP94 tryptophan fluorescence", "setting": "GRP94 [6]", "value": "increased the tryptophan fluorescence"}]}
